Measured values published in ChEMBL document CHEMBL1268840, “Design, synthesis and structure-activity relationship of novel quinoxalin-2-carboxamides as 5-HT3 receptor antagonists for the management of depression” (Bioorg Med Chem Lett, 2010).

Legend:
[1] = test system: Mus musculus; test: Toxicity in mouse assessed as induction of spontaneous locomotor activity at 1 mg/kg, ip after 10 mins by actophotometry; type: organism-based; set-up: dose 1 mg/kg, route intraperitoneal; conditions: in vivo
[2] = molecular target: T1, 5-hydroxytryptamine receptor 3A (Cavia porcellus, UniProt O70212); test: Antagonist activity at 5HT3 receptor in guinea pig ileum longitudinal muscle myenteric plexus assessed as inhibition of 2-methyl-5-HT-induced contraction; type: functional, tissue-based; conditions: read-out: pA2 (converted)
T1 sequence (O70212 whole entry): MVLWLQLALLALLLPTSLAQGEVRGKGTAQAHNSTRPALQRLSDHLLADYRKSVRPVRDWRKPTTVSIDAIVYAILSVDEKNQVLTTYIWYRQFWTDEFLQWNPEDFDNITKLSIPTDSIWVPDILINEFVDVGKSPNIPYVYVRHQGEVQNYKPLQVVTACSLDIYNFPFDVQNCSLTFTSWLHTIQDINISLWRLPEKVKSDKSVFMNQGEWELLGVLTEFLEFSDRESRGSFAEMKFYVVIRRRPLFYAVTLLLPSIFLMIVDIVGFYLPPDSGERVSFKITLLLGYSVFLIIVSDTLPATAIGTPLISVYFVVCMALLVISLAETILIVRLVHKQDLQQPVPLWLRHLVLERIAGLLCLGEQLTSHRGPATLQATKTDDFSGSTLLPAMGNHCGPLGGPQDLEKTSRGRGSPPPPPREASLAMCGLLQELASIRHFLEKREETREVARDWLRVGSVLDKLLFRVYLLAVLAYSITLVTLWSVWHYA

[3] = test system: Mus musculus; test: Toxicity in mouse assessed as induction of spontaneous locomotor activity at 2 mg/kg, ip after 10 mins by actophotometry; type: organism-based; set-up: dose 2 mg/kg, route intraperitoneal; conditions: in vivo
[4] = test system: Mus musculus; test: Antidepressant-like activity in mouse assessed as immobility time at 1 mg/kg, ip by forced swimming test; type: functional; conditions: route intraperitoneal
[5] = test system: Mus musculus; test: Toxicity in mouse assessed as induction of spontaneous locomotor activity at 0.5 mg/kg, ip after 10 mins by actophotometry; type: organism-based; set-up: dose 0.5 mg/kg, route intraperitoneal; conditions: in vivo
[6] = test system: Mus musculus; test: Antidepressant-like activity in mouse assessed as immobility time at 2 mg/kg, ip by forced swimming test; type: functional; conditions: route intraperitoneal
[7] = test system: Mus musculus; test: Antidepressant-like activity in mouse assessed as immobility time at 0.5 mg/kg, ip by forced swimming test; type: functional; conditions: route intraperitoneal

| Kb [2] [nM] | Compound | Activity [1] | Activity [3] | Time [4] [s] | Activity [5] | Time [6] [s] | Time [7] [s] |
| --- | --- | --- | --- | --- | --- | --- | --- |
| 794 | CC(=O)c1cccc(NC(=O)c2cnc3ccccc3n2)c1 | Non-toxic | Non-toxic | 132.4 | Non-toxic | – | – |
| 1580 | O=C(Nc1cccc(Cl)c1)c1cnc2ccccc2n1 | Non-toxic | Non-toxic | 151.2 | Non-toxic | – | – |
| 50.1 | CCCCNC(=O)c1cnc2ccccc2n1 | Non-toxic | Non-toxic | 97.5 | Non-toxic | 103 | 121 |
| 12600 | O=C(Nc1ccc(NC(=O)c2cnc3ccccc3n2)cc1)c1ccccc1 | Non-toxic | Non-toxic | 125 | Non-toxic | – | – |
| 126 | Cc1nccn1CC1CCc2c(c3ccccc3n2C)C1=O (stereo not drawn) [ONDANSETRON] | Non-toxic | Non-toxic | 100.4 | Non-toxic | 95.1 | 130.2 |
| 1000 | O=C(NC1CCCCC1)c1cnc2ccccc2n1 | Non-toxic | Non-toxic | 92.85 | Non-toxic | 99 | 119 |
| 31600 | O=C(Nc1nc2ccccc2s1)c1cnc2ccccc2n1 | Non-toxic | Non-toxic | 115.1 | Non-toxic | – | – |
| 398 | O=C(c1cnc2ccccc2n1)N1CCCC1 | Non-toxic | Non-toxic | 139 | Non-toxic | – | – |
| 10000 | COc1ccc(NC(=O)c2cnc3ccccc3n2)cc1 | Non-toxic | Non-toxic | 143.5 | Non-toxic | – | – |
| 10000 | O=C(Nc1ccc([N+](=O)[O-])cc1)c1cnc2ccccc2n1 | Non-toxic | Non-toxic | 106.32 | Non-toxic | 108 | 142 |
| 6310 | Cc1ccc(NC(=O)c2cnc3ccccc3n2)cc1 | Non-toxic | Non-toxic | 105 | Non-toxic | 97.23 | 140 |
| 100000 | O=C(Nc1ccccc1NC(=O)c1cnc2ccccc2n1)c1ccccc1 | Non-toxic | Non-toxic | 121 | Non-toxic | – | – |
| 25.1 | Cc1c(Cl)cccc1NC(=O)c1cnc2ccccc2n1 | Non-toxic | Non-toxic | 95.42 | Non-toxic | 147 | 120 |
| 158 | O=C(Nc1ccccc1)c1cnc2ccccc2n1 | Non-toxic | Non-toxic | 141 | Non-toxic | – | – |
| 316 | O=C(NC1CCCC1)c1cnc2ccccc2n1 | Non-toxic | Non-toxic | 94.25 | Non-toxic | 120 | 125 |
| 2000 | O=C(NCc1ccccc1)c1cnc2ccccc2n1 | Non-toxic | Non-toxic | 133 | Non-toxic | – | – |
| 1580 | O=C(NNc1ccccc1)c1cnc2ccccc2n1 | Non-toxic | Non-toxic | 95.4 | Non-toxic | 121 | 126 |
| 200 | CCCNC(=O)c1cnc2ccccc2n1 | Non-toxic | Non-toxic | 92.33 | Non-toxic | 125 | 148 |
